These results are taken from ChEMBL document CHEMBL1821553, “Yojironins E-I, prenylated acylphloroglucinols from Hypericum yojiroanum” (Bioorg Med Chem Lett, 2011).

Broadly, the IC50 is the concentration at which inhibition is half-maximal. The low end stands for greater potency in that assay, the high end for weaker potency in that assay.

≈ marks a conversion by molar mass, not a printed value.

One assay deals with Aspergillus niger. The experiment in a line: Antimicrobial activity against Aspergillus niger. Type of assay: functional, organism-based.
For another assay, the system named is Candida albicans. The assay is described as follows: Antimicrobial activity against Candida albicans. In kind it is functional, organism-based.
The subject of another assay is Cryptococcus neoformans. The experiment in a line: Antimicrobial activity against Cryptococcus neoformans. In kind it is functional, organism-based.
Assay [1] relates to Trichophyton mentagrophytes. The experiment in a line: Antimicrobial activity against Trichophyton mentagrophytes. In kind it is functional, organism-based.
For the next assay, the system named is P388. The experiment in a line: Cytotoxicity against mouse P388 cells. Type of assay: functional, cell-based.
The next assay concerns KB. The assay is described as follows: Cytotoxicity against human KB cells. Type of assay: functional, cell-based.

Consider `CCC(C)C(=O)C1=C(O)C(C)=C2O[C@@H](C(C)(C)O)C[C@@]2(C/C=C(\C)CCC=C(C)C)C1=O` (stereo partly specified) [YOJIRONIN E], for which the IC50 in the assay with Aspergillus niger is 16 µg/mL (≈ 36 µM); in the assay with Candida albicans it was 4 µg/mL (≈ 9 µM); in the assay on Cryptococcus neoformans, 4 µg/mL (≈ 9 µM); in assay [1], 4 µg/mL (≈ 9 µM); in the assay on P388, 3.7 µg/mL (≈ 8.32 µM); with KB, 5 µg/mL (≈ 11.2 µM).
